Relative viability data for 6 cell lines are collected here from the supplement of paper PMC10307832.

Test in all cases: relative viability (nuclei count vs DMSO), 5 days (fraction); higher = more cells survive
Compound in test [1]: C/C(=N\NC(=S)N1CCC1)/C2=CC=CC=N2 + Cc1nc(Nc2ncc(C(=O)Nc3c(C)cccc3Cl)s2)cc(N2CCN(CCO)CC2)n1 [Dasatinib] (partner 0.075 µM)
The gist of the method: (§1)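 Lung cancer cell lines in 1536-well plates were dosed by pin tool the day after seeding, either with one drug alone or with a fixed anchor-drug dose plus five library-drug doses (not always all listed) in √10 steps. After 5 days, cells were fixed and their nuclei stained in one step (final 0.05% Triton X-100, 1% formaldehyde, 1 ug/ml Hoechst), then counted on 4× images. Relative viability is the nuclei count in treated wells divided by that in vehicle wells. Values are medians of duplicate plates.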

Compound in test [2]: C/C(=N\NC(=S)N1CCC1)/C2=CC=CC=N2 + O=C(CCCCCCC(=O)Nc1ccccc1)NO [Vorinostat] (partner 1 µM)
The gist of the method:
as §1

Compound in test [3]: C/C(=N\NC(=S)N1CCC1)/C2=CC=CC=N2 + CC1(C)CCC(c2ccc(Cl)cc2)=C(CN2CCN(c3ccc(C(=O)NS(=O)(=O)c4ccc(N[C@H](CCN5CCOCC5)CSc5ccccc5)c(S(=O)(=O)C(F)(F)F)c4)cc3)CC2)C1 [Navitoclax] (partner 0.5 µM)
An outline of the steps:
as §1

Compound in test [4]: C/C(=N\NC(=S)N1CCC1)/C2=CC=CC=N2 + C[C@@H](Oc1cc(-c2cnn(C3CCNCC3)c2)cnc1N)c1c(Cl)ccc(F)c1Cl [Crizotinib] (partner 1 µM)
An outline of the steps: as §1

Take COR-L 105: the relative viability in test [1] (first compound 0.05 µM) came to 0.178; in test [1] (first compound 0.1581 µM), 0.254; in test [1] (first compound 0.5 µM), 0.243; in test [1] (first compound 1.581 µM) it was 0.176; in test [1] (first compound 5 µM), 0.185; in test [2] (first compound 0.05 µM) it was 0.345. The relative viability in test [2] (first compound 0.1581 µM) came to 0.346; in test [2] (first compound 0.5 µM), 0.345; in test [2] (first compound 1.581 µM) it was 0.304; in test [2] (first compound 5 µM), 0.291; in test [3] (first compound 0.05 µM) it was 0.288; in test [3] (first compound 0.1581 µM), 0.316. For the same cell line, the relative viability stood at 0.26 in test [3] (first compound 0.5 µM); 0.236 in test [3] (first compound 1.581 µM); 0.317 in test [3] (first compound 5 µM); 0.231 in test [4] (first compound 0.05 µM); 0.252 in test [4] (first compound 0.1581 µM); 0.224 in test [4] (first compound 0.5 µM). Also, the relative viability is 0.205 in test [4] (first compound 1.581 µM) and 0.256 in test [4] (first compound 5 µM).
Consider NCI-H1734, for which the relative viability amounted to 0.152 in test [1] (first compound 0.05 µM); 0.12 in test [1] (first compound 0.1581 µM); 0.148 in test [1] (first compound 0.5 µM); 0.112 in test [1] (first compound 1.581 µM); 0.089 in test [1] (first compound 5 µM); 0.169 in test [2] (first compound 0.05 µM). Moreover, the relative viability in test [2] (first compound 0.1581 µM) stood at 0.174; in test [2] (first compound 0.5 µM), 0.145; in test [2] (first compound 1.581 µM) it was 0.12; in test [2] (first compound 5 µM), 0.124; in test [3] (first compound 0.05 µM), 0.0989; in test [3] (first compound 0.1581 µM) it was 0.104. In addition, the relative viability came to 0.0882 in test [3] (first compound 0.5 µM); 0.0843 in test [3] (first compound 1.581 µM); 0.0776 in test [3] (first compound 5 µM); 0.202 in test [4] (first compound 0.05 µM); 0.175 in test [4] (first compound 0.1581 µM); 0.156 in test [4] (first compound 0.5 µM). Also, the relative viability amounted to 0.118 in test [4] (first compound 1.581 µM) and 0.121 in test [4] (first compound 5 µM).
With NCI-H3122, the relative viability came out at 0.0675 in test [1] (first compound 0.05 µM); 0.0912 in test [1] (first compound 0.1581 µM); 0.0839 in test [1] (first compound 0.5 µM); 0.11 in test [1] (first compound 1.581 µM); 0.11 in test [1] (first compound 5 µM); 0.111 in test [2] (first compound 0.05 µM). For the same cell line, the relative viability came out at 0.077 in test [2] (first compound 0.1581 µM); 0.106 in test [2] (first compound 0.5 µM); 0.121 in test [2] (first compound 1.581 µM); 0.103 in test [2] (first compound 5 µM); 0.132 in test [3] (first compound 0.05 µM); 0.137 in test [3] (first compound 0.1581 µM). The relative viability in test [3] (first compound 0.5 µM) turned out to be 0.156; in test [3] (first compound 1.581 µM), 0.247; in test [3] (first compound 5 µM), 0.216; in test [4] (first compound 0.05 µM) it was 0.151; in test [4] (first compound 0.1581 µM) it was 0.171; in test [4] (first compound 0.5 µM) it was 0.185. The figures for the relative viability in test [4] (first compound 1.581 µM) and in test [4] (first compound 5 µM) were 0.171 and 0.176, respectively.
Consider CAL-12T, for which the relative viability came to 0.0937 in test [1] (first compound 0.05 µM); 0.0896 in test [1] (first compound 0.1581 µM); 0.054 in test [1] (first compound 0.5 µM); 0.0962 in test [1] (first compound 1.581 µM); 0.0819 in test [1] (first compound 5 µM); 0.0882 in test [2] (first compound 0.05 µM). Also, the relative viability stood at 0.112 in test [2] (first compound 0.1581 µM); 0.127 in test [2] (first compound 0.5 µM); 0.101 in test [2] (first compound 1.581 µM); 0.114 in test [2] (first compound 5 µM); 0.168 in test [3] (first compound 0.05 µM); 0.139 in test [3] (first compound 0.1581 µM). The relative viability amounted to 0.171 in test [3] (first compound 0.5 µM); 0.144 in test [3] (first compound 1.581 µM); 0.118 in test [3] (first compound 5 µM); 0.106 in test [4] (first compound 0.05 µM); 0.0871 in test [4] (first compound 0.1581 µM); 0.12 in test [4] (first compound 0.5 µM). The relative viability in test [4] (first compound 1.581 µM) was found to be 0.103; in test [4] (first compound 5 µM), 0.0896.
Consider HCC-78, for which the relative viability was 0.264 in test [1] (first compound 0.05 µM); 0.256 in test [1] (first compound 0.1581 µM); 0.268 in test [1] (first compound 0.5 µM); 0.181 in test [1] (first compound 1.581 µM); 0.157 in test [1] (first compound 5 µM); 0.427 in test [2] (first compound 0.05 µM). In addition, the relative viability in test [2] (first compound 0.1581 µM) is 0.414; in test [2] (first compound 0.5 µM), 0.338; in test [2] (first compound 1.581 µM) it was 0.23; in test [2] (first compound 5 µM) it was 0.231; in test [3] (first compound 0.05 µM) it was 0.492; in test [3] (first compound 0.1581 µM) it was 0.245. For the same cell line, the relative viability was determined as 0.218 in test [3] (first compound 0.5 µM); 0.189 in test [3] (first compound 1.581 µM); 0.12 in test [3] (first compound 5 µM); 0.338 in test [4] (first compound 0.05 µM); 0.251 in test [4] (first compound 0.1581 µM); 0.237 in test [4] (first compound 0.5 µM). For the same cell line, the relative viability in test [4] (first compound 1.581 µM) was found to be 0.142; in test [4] (first compound 5 µM), 0.167.
Turning to NCI-H2085, the relative viability in test [1] (first compound 0.05 µM) turned out to be 0.209; in test [1] (first compound 0.1581 µM), 0.219; in test [1] (first compound 0.5 µM), 0.27; in test [1] (first compound 1.581 µM), 0.259; in test [1] (first compound 5 µM) it was 0.229; in test [2] (first compound 0.05 µM), 0.339. The relative viability in test [2] (first compound 0.1581 µM) turned out to be 0.379; in test [2] (first compound 0.5 µM), 0.355; in test [2] (first compound 1.581 µM), 0.288; in test [2] (first compound 5 µM), 0.305; in test [3] (first compound 0.05 µM) it was 0.246; in test [3] (first compound 0.1581 µM) it was 0.248. In addition, the relative viability in test [3] (first compound 0.5 µM) was 0.245; in test [3] (first compound 1.581 µM), 0.248; in test [3] (first compound 5 µM), 0.281; in test [4] (first compound 0.05 µM), 0.269; in test [4] (first compound 0.1581 µM), 0.236; in test [4] (first compound 0.5 µM), 0.25. For the same cell line, the relative viability in test [4] (first compound 1.581 µM) worked out at 0.219; in test [4] (first compound 5 µM) it was 0.225.
